Columns and labels:
[1] = target: hOX1R (Homo sapiens, UniProt O43613); assay: hOX1R FLIPR Ca2+ flux assay; format: cell-based; details: CHO cells expressing the receptor; agonist 70 pM Ala-6,12 human orexin-A
[2] = target: human orexin-2 receptor (Homo sapiens (Human), UniProt O43614); assay: hOX2R FLIPR Ca2+ flux assay; format: cell-based; details: CHO cells expressing the receptor; agonist 70 pM Ala-6,12 human orexin-A
Procedure: In a typical experiment the OX1 and OX2 receptor antagonistic activity of the compounds of the present invention was determined in accordance with the following experimental method. For intracellular calcium measurements, Chinese hamster ovary (CHO) cells expressing the rat orexin-1 receptor or the human orexin-2 receptor, are grown in Iscove's modified DMEM containing 2 mM L-glutamine, […], 1% hypoxanthine-thymidine supplement, 100 U/ml penicillin, 100 μg/ml streptomycin and 10% heat-inactivated fetal calf serum (FCS). The cells are seeded at 20,000 cells/well into Becton-Dickinson black 384-well clear bottom sterile plates coated with poly-D-lysine. All reagents were from GIBCO-Invitrogen Corp. The seeded plates are incubated overnight at 37° C. and 5% CO2. Ala-6,12 human orexin-A as the agonist is prepared as a 1 mM stock solution in 1% bovine serum albumin (BSA) and diluted in assay buffer (HBSS containing 20 mM HEPES, 0.1% BSA and 2.5 mM probenecid, pH7.4) for use in the assay at a final concentration of 70 pM. Test compounds are prepared as 10 mM stock solution in DMSO, then diluted in 384-well plates, first in DMSO, then assay buffer. On the day of the assay, cells are washed 3 times with 100 μl assay buffer and then incubated for 60 min (37° C., 5% CO2) in 60 μl assay buffer containing 1 μM Fluo-4AM ester, 0.02% pluronic acid, and 1% BSA. The dye loading solution is then aspirated and cells are washed 3 times with 100 μl assay buffer. 30 μl of that same buffer is left in each well. Within the Fluorescent Imaging Plate Reader (FLIPR, Molecular Devices), test compounds are added to the plate in a volume of 25 μl, incubated for 5 min and finally 25 μl of agonist is added. Fluorescence is measured for each well at 1 second intervals for 5 minutes and the height of each fluorescence peak is compared to the height of the fluorescence peak induced by 70 pM Ala-6,12 orexin-A with buffer in place of antagonist. […] Alternatively, compound potency can be assessed by a radioligand binding assay (described in Bergman et. al. Bioorg. Med. Chem. Lett. 2008, 18, 1425-1430) in which the inhibition constant (Ki) is determined in membranes prepared from CHO cells expressing either the OX1 or OX2 receptor. The intrinsic orexin receptor antagonist activity of a compound which may be used in the present invention may be determined by these assays.

Sequence of human orexin-2 receptor (O43614 whole entry): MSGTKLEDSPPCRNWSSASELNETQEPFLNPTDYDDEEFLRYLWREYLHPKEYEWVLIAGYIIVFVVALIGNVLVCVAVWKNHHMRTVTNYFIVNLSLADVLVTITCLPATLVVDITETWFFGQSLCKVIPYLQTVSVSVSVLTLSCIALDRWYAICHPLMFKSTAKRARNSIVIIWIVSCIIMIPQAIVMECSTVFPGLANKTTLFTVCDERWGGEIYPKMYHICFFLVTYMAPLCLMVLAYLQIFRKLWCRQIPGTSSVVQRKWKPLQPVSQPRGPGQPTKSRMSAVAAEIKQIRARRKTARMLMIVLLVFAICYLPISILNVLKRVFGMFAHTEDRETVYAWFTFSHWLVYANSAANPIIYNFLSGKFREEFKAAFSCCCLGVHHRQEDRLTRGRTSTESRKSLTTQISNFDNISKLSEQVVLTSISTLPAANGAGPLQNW

Structure (SMILES) | IC50 [1] [µM] | IC50 [2] [µM]
COC(=O)c1nc(N2CC[C@H]3CCN(C(=O)c4ccccc4-n4nccn4)C[C@H]32)sc1C (stereo in doubt) [Example B12, methyl 2-((3aR, 7aS)-6-(2-(2H-1,2,3-triazol-2-yl)benzoyl)octahydro-1H-pyrrolo[2,3-c]pyridin-1-yl)-5-methylthiazole-4-carboxylate] | 10 | 1.34
N#Cc1ccnc(N2CC[C@H]3CCN(C(=O)c4ccccc4-n4ncnn4)C[C@H]32)c1 (stereo in doubt) [Example D2, 2-((3aS, 7aS)-6-(2-(2H-tetrazol-2-yl)benzoyl)octahydro-1H-pyrrolo[2,3-c]pyridin-1-yl)isonicotinonitrile] | 10 | 0.11
N#Cc1ccnc(N2CC[C@H]3CCN(C(=O)c4ccccc4OC(F)(F)F)C[C@H]32)c1 (stereo in doubt) [Example D3, 2-((3aS, 7aS)-6-(2-(trifluoromethoxy)benzoyl)octahydro-1H-pyrrolo[2,3-c]pyridin-1-yl)isonicotinonitrile] | 10 | 0.0791
N#Cc1ccnc(N2CC[C@H]3CCN(C(=O)c4nccnc4-c4ccccn4)C[C@H]32)c1 (stereo in doubt) [Example D4, 2-((3aS, 7aS)-6-(3-(pyridin-2-yl)pyrazine-2-carbonyl)octahydro-1H-pyrrolo[2,3-c]pyridin-1-yl)isonicotinonitrile] | ≥ 10 | 0.328
N#Cc1ccnc(N2CC[C@H]3CCN(C(=O)c4cccnc4-n4cccn4)C[C@H]32)c1 (stereo in doubt) [Example D5, 2-((3aS, 7aS)-6-(2-(1H-pyrazol-1-yl)nicotinoyl)octahydro-1H-pyrrolo[2,3-c]pyridin-1-yl)isonicotinonitrile] | 10 | 0.037
N#Cc1ccnc(N2CC[C@H]3CCN(C(=O)c4nccnc4-n4cccn4)C[C@H]32)c1 (stereo in doubt) [Example D6, 2-((3aS, 7aS)-6-(3-(1H-pyrazol-1-yl)pyrazine-2-carbonyl)octahydro-1H-pyrrolo[2,3-c]pyridin-1-yl)isonicotinonitrile] | 10 | 0.117
N#Cc1ccnc(N2CC[C@H]3CCN(C(=O)c4ccccc4-n4nccn4)C[C@H]32)c1 [Example A1, 2-((3aS,7aS)-6-(2-(2H-1,2,3-triazol-2-yl)benzoyl)octahydro-1H-pyrrolo[2,3-c]pyridin-1-yl)isonicotinonitrile] | 10 | 0.0405
Cc1cc(C)nc(N2CC[C@@H]3CCN(C(=O)c4ccccc4-n4nccn4)C[C@@H]32)n1 [Example A2, (2-(2H-1,2,3-triazol-2-yl)phenyl)((3aR, 7aR)-1-(4,6-dimethylpyrimidin-2-yl)hyexahydro-1H-pyrrolo[2,3-c]pyridin-6(2H)-yl)methanone] | 10 | 0.163
N#Cc1ccnc(N2CC[C@@H]3CCN(C(=O)c4ccccc4-n4nccn4)C[C@@H]32)n1 [Example A3, 2-((3aR, 7aR)-6-(2-(2H-1,2,3-triazol-2-yl)benzoyl)octahydro-1H-pyrrolo[2,3-c]pyridin-1-yl)pyrimidine-4-carbonitrile] | 10 | 0.943
Cc1cc(C#N)nc(N2CC[C@@H]3CCN(C(=O)c4ccccc4-n4nccn4)C[C@@H]32)n1 [Example A4, 2-((3aR, 7aR)-6-(2-(2H-1,2,3-triazol-2-yl)benzoyl)octahydro-1H-pyrrolo[2,3-c]pyridin-1-yl)-6-methylpyrimidine-4-carbonitrile] | 10 | 10
COc1cc(OC)nc(N2CC[C@@H]3CCN(C(=O)c4ccccc4-n4nccn4)C[C@@H]32)n1 [Example A5, (2-(2H-1,2,3-triazol-2-yl)phenyl)((3aR, 7aR)-1-(4,6-dimethoxypyrimidin-2-yl)hexahydro-1H-pyrrolo[2,3-c]pyridin-6(2H)-yl)methanone] | 10 | 2.1
O=C(c1ccccc1-n1nccn1)N1CC[C@H]2CCN(c3ncccn3)[C@H]2C1 [Example A6] | 10 | 6.08
COC(=O)c1ccnc(N2CC[C@@H]3CCN(C(=O)c4ccccc4-n4nccn4)C[C@@H]32)c1 [Example A8] | ≥ 10 | ≥ 10
COc1cc(N2CC[C@@H]3CCN(C(=O)c4ccccc4-n4nccn4)C[C@@H]32)ncc1C#N [Example A9] | ≥ 10 | 2.64
O=C(c1ccccc1-n1nccn1)N1CC[C@H]2CCN(c3ccc(-n4ccnc4)nn3)[C@H]2C1 [Example A10, (3aR, 7aR)-(1-(6-(1H-imidazol-1-yl)pyridazin-3-yl)hexahydro-1H-pyrrolo[2,3-c]pyridin-6(2H)-yl)(2-(2H-1,2,3-triazol-2-yl)phenyl)methanone] | 10 | 10
Cc1ccc(C)n1-c1ccc(N2CC[C@@H]3CCN(C(=O)c4ccccc4-n4nccn4)C[C@@H]32)nn1 [Example A11, (2-(2H-1,2,3-triazol-2-yl)phenyl)((3aR, 7aR)-1-(6-(2,5-dimethyl-1H-pyrrol-1-yl)pyridazin-3-yl)hexahydro-1H-pyrrolo[2,3-c]pyridin-6(2H)-yl)methanone] | 10 | 10
COC(=O)c1ccc(N2CC[C@@H]3CCN(C(=O)c4ccccc4-n4nccn4)C[C@@H]32)nn1 [Example A12, methyl 6-((3aR, 7aR)-6-(2-(2H-1,2,3-triazol-2-yl)benzoyl)octahydro-1H-pyrrolo[2,3-c]pyridin-1-yl)pyridazine-3-carboxylate] | ≥ 10 | ≥ 10
O=C(c1ccccc1-n1nccn1)N1CC[C@H]2CCN(c3ncnc4scnc34)[C@H]2C1 [Example A13, (2-(2H-1,2,3-triazol-2-yl)phenyl)((3aR, 7aR)-1-(thiazolo[5,4-d]pyrimidin-7-yl)hexahydro-1H-pyrrolo[2,3-c]pyridin-6(2H)-yl)methanone] | ≥ 10 | ≥ 10
N#Cc1cc(Cl)ncc1N1CC[C@@H]2CCN(C(=O)c3ccccc3-n3nccn3)C[C@@H]21 [Example A14, 5-((3aR, 7aR)-6-(2-(2H-1,2,3-triazol-2-yl)benzoyl)octahydro-1H-pyrrolo[2,3-c]pyridin-1-yl)-2-chloroisonicotinonitrile] | ≥ 10 | ≥ 10
Cc1c(C#N)ccnc1N1CC[C@@H]2CCN(C(=O)c3ccccc3-n3nccn3)C[C@@H]21 [Example A15, 2-(cis-6-(2-(2H-1,2,3-triazol-2-yl)benzoyl)ocathydro-1H-pyrrolo[2,3-c]pyridin-1-yl)-3-methylisonicotinonitrile] | ≥ 10 | 0.0848
CN(C)c1ccnc(N2CC[C@@H]3CCN(C(=O)c4ccccc4-n4nccn4)C[C@@H]32)c1C#N [Example A17, 4-(dimethylamino)-2-[(3aR, 7aR)-6-{[2-(2H-1,2,3-triazol-2-yl)phenyl]carbonyl}octahydro-1H-pyrrolo[2,3-c]pyridin-1-yl]pyridine-3-carbonitrile] | ≥ 10 | 0.0698
CN(C)c1cc(Cl)nc(N2CC[C@@H]3CCN(C(=O)c4ccccc4-n4nccn4)C[C@@H]32)n1 [Example A18, 6-chloro-N,N-dimethyl-2-[(3aR, 7aR)-6-{[2-(2H-1,2,3-triazol-2-yl)phenyl]carbonyl}octahydro-1H-pyrrolo[2,3-c]pyridin-1-yl]pyrimidin-4-amine] | 3.24 | 0.13

From patent publication US9938276B2, “6,5-bicyclic octahydropyrrolopyridine orexin receptor antagonists” (Merck Sharp & Dohme Corp., priority 2014, dated 2018)
